For one compound, IC50 results are on record in BindingDB's records for doi:10.1021/jm00102a002 (Bristol-Myers Squibb, 1993).

Molecules are shown by their SMILES.

The target of assay [1] is D(2) dopamine receptor (Rattus norvegicus, UniProt P61169). In words: ChEBML_61741.
Description: Inhibitory concentration against radioligand [3H]spiperone binding to rat striatal Dopamine receptor D2
Assay [2] addresses Serotonin 2 (5-HT2) receptor (Rattus norvegicus, UniProt P08909+P14842+P30994). The assay can be described thus: ChEBML_1935. The source says: Inhibitory concentration against radioligand [3H]spiperone binding to 5-hydroxytryptamine 2 receptor in rat cortex

Serotonin 2 (5-HT2) receptor, sequence (P14842 whole entry): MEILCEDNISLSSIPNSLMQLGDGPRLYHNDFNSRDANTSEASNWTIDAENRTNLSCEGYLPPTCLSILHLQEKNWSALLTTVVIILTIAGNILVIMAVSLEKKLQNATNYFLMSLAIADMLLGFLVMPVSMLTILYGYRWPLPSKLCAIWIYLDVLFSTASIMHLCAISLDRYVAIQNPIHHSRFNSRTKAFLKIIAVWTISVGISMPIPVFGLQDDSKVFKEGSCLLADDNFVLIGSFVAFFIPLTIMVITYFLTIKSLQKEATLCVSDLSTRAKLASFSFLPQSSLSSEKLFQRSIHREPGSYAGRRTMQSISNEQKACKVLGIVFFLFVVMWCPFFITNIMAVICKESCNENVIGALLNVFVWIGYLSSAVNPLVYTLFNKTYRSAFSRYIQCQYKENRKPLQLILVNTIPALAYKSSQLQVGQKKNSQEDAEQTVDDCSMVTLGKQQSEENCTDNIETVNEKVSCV
Serotonin 2 (5-HT2) receptor, sequence (P08909 whole entry): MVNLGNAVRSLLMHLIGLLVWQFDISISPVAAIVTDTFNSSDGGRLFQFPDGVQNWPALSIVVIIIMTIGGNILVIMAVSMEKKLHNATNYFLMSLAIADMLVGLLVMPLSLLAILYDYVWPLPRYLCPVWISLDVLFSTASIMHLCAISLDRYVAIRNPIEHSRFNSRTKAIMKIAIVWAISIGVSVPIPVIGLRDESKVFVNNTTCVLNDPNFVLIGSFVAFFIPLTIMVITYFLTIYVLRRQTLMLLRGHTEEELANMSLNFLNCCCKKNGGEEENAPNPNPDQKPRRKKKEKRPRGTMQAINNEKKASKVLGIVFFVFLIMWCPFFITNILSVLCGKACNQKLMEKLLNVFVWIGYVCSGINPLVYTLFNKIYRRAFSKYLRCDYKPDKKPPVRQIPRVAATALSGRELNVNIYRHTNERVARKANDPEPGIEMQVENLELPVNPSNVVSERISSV
Serotonin 2 (5-HT2) receptor, sequence (P30994 whole entry): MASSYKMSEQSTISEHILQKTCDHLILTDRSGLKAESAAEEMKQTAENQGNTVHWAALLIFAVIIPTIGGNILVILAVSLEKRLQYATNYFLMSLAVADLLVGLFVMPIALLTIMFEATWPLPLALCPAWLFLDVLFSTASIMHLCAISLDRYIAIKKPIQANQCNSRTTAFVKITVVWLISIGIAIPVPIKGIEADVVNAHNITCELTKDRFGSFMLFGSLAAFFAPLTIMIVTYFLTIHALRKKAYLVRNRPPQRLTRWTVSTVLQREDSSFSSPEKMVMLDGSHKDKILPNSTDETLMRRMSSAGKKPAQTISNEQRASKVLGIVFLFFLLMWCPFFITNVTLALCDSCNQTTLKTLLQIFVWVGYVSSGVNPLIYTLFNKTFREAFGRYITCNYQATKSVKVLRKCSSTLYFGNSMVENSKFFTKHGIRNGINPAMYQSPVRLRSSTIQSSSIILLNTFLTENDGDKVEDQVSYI
D(2) dopamine receptor, sequence (P61169 whole entry): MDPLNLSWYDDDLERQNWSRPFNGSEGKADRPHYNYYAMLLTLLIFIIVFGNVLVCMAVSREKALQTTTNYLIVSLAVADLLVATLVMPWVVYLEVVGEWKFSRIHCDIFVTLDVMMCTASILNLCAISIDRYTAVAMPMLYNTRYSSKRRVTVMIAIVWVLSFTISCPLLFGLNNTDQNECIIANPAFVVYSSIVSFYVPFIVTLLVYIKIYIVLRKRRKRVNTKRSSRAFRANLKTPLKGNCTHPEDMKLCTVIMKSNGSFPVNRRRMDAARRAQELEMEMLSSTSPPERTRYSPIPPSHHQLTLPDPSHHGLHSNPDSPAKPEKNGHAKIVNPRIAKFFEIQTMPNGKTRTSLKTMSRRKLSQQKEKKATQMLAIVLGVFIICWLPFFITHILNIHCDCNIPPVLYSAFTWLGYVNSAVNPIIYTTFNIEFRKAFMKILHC

As usually defined, the IC50 is the concentration needed to halve the response being measured. As for `OC(CCCN1CCN(c2ncc(F)cn2)CC1)c1ccc(F)cc1` (configuration not stated) [1-(4-fluorophenyl)-4-(4-(5-fluoropyrimidin-2-yl)piperazin-1-yl)butan-1-ol], the IC50 in assay [1] was 6.43 µM; in assay [2], 1.7 µM.
